Measured values: PMC3998711 (Nature chemical biology, 2014)
Where two headings read alike, the source gives them in different places. One block for each compound: values may come before it.

What was measured:
[1] = molecular target: first bromodomain of BRD4, BRD4(1) (Homo sapiens, UniProt O60885); assay: AlphaScreen assay; type: binding; details: described in words
[2] = molecular target: RSK family kinase; assay: Kinome-wide profiling, RSK family; details: read-out: Kds, RSK family; kinome-wide data
[3] = molecular target: BRD4(1) (Homo sapiens, UniProt O60885); assay: Isothermal titration calorimetry; type: binding; details: ITC, 15 °C, 50 mM HEPES, 150 mM NaCl
[4] = system: PLK family; assay: Kinome-wide profiling, PLK family
[5] = system: MV4-11 AML cells; assay: MV4-11 proliferation assay; type: cell-based, human; details: read-out: IC50, proliferation of MV4-11 AML cells
[6] = system: c-Myc; assay: Western blot analysis of cellular c-Myc levels in MM.1S cells; type: cell-based, human; details: 6 h; for c-Myc levels (western blot): MM.1S cells, inhibitor 5 μM; for IC50: Homo sapiens, MM1.S, read-out: IC50 for c-Myc suppression
[7] = system: c-Myc; assay: Western blot of c-Myc levels in Molm14 cell lines; type: cell-based, human; details: FLT3 inhibitor-sensitive and -resistant lines, 6 h
[8] = system: MM.1S multiple myeloma cells; assay: MM.1S proliferation assay; type: cell-based; details: Homo sapiens, MM1.S, 72 h, read-out: IC50, MM.1S proliferation
[9] = system: 12 primary human cell-based BioMAP systems; assay: BioMAP primary human cell disease model assay systems

Compound: C[C@@H](Oc1cc(-n2cnc3ccc(CN4CCN(C)CC4)cc32)sc1C(N)=O)c1ccccc1C(F)(F)F [GSK-461364A]
c-Myc levels (western blot) [6]: did not affect c-Myc levels

Compound: COc1cc2c(cc1-c1c(C)noc1C)ncc1[nH]c(=O)n([C@H](C)c3ccccn3)c12 [I-BET]
IC50 ([5]; 72 h): 200 nM

Compound: Cc1sc2c(c1C)C(c1ccc(Cl)cc1)=N[C@@H](CC(=O)OC(C)(C)C)c1nnc(C)n1-2 [JQ1]
IC50 ([5]; 72 h): 28 nM
c-Myc expression in Molm14 cell lines [7]: inhibits c-Myc expression with similar potencies

Compound: C[C@@H]1CCN(C(=O)CC#N)C[C@@H]1N(C)c1ncnc2[nH]ccc12 [tofacitinib]
c-Myc levels (western blot) [6]: did not affect c-Myc levels

Now from value to compound, other results behind:

AlphaScreen dose response IC50 [1]: nanomolar
Kd [2]: 10 to 100 nM
Kd [3]: 3500 ± 170 nM
Kd ([4]; read-out: Kds, PLK family, kinome-wide data): ~10 nM
Compound: CC(C)CCN1c2nc(Nc3cc(F)c(O)c(F)c3)ncc2N(C)C(=O)C1C (stereo not shown) [BI-D1870]
PLK family potencies lower than for BI-2536 [4]: 10–100 fold

IC50 ([5]; Homo sapiens, MV4-11, 72 h): ~10000 nM
Compound: N#CC[C@H](C1CCCC1)n1cc(-c2ncnc3[nH]ccc23)cn1 [ruxolitinib]
c-Myc levels (western blot) [6]: did not affect c-Myc levels

IC50 [6]: ~100 nM
Compound: CC[C@@H]1C(=O)N(C)c2cnc(Nc3ccc(C(=O)NC4CCN(C)CC4)cc3OC)nc2N1C1CCCC1 [BI-2536]
c-Myc levels (western blot) [6]: strong c-Myc down regulation

Kd ([3]; error of the fit): 445 ± 42 nM
Compound: CN(c1ccccc1CNc1nc(Nc2ccc3c(c2)CC(=O)N3)ncc1C(F)(F)F)S(C)(=O)=O [PF-431396]

IC50 [8]: 1000 to 3000 nM
IC50 [6]: 1000 to 3000 nM
Compound: Cc1cnc(Nc2ccc(OCCN3CCCC3)cc2)nc1Nc1cccc(S(=O)(=O)NC(C)(C)C)c1 [TG-101348]
c-Myc levels (western blot) [6]: strong c-Myc down regulation
production of TNFα, MIG and IL-8 [9]: inhibited
